The results in this text go back to patent publication US9958436B2, “Determination of cell chirality” (THE TRUSTEES OF COLUMBIA UNIVERSITY IN THE CITY OF NEW YORK, priority 2011, dated 2018).

One test relates to C2C12 cells. Briefly: Cell chirality (alignment) on micropatterned rings, drug treatment, C2C12. Type of test: cell-based, mouse. The settings on record: for effect on left-right asymmetry / effect on cell chirality: C2C12; for effect on left-right asymmetry: drugs that affect the actomyosin motor, 0.2-10 mM Y-27632, 1-20 mM ML-7, 0.5-10 mM Blebbistatin; for effect on cell chirality: inhibitors of tubulin dynamics at concentrations below those resulting in cell apoptosis; for CCW: counter-clockwise alignment / CW: clockwise alignment / N/S: not significantly biased to CW or CCW: C2C12 on ring patterns, count of rings. The procedure: (§1) Cells were maintained in tissue flasks with culture media specified in TABLE 2. After reaching 70% confluency, cells were trypsinized and seeded onto protein-coated patterned surfaces. Once the cells attached, extra cells were washed off with fresh medium. At this time drugs were added into the culture medium if necessary. Phase contrast images were taken after overnight incubation at 37° C. and 5% CO2 when cells reached confluency on the ring patterns.
(§2) To examine the role of actin in left-right (LR) asymmetry, cells were tested with 20-500 nM Latrunculin A, 0.05-1.0 μg/ml Cytochalasin D, and 1-100 nM Jasplakinolide. Latrunculin A inhibits actin polymerization by forming a 1:1 molar complex with G-actin, thereby inhibiting its ability to polymerize into F-actin (M. Coue, S. L. Brenner, I. Spector, E. D. Korn, FEBS Lett 213, 316 (Mar. 23, 1987)). Cytochalasin D inhibits actin polymerization by binding to the growing ends of F-actin chains and thus preventing the attachment and addition of G-actin monomers (J. A. Cooper, J Cell Biol 105, 1473 (October, 1987)). Jasplakinolide is known to bind to and stabilize actin filaments in vitro (M. R. Bubb, I. Spector, B. B. Beyer, K. M. Fosen, J Biol Chem 275, 5163 (Feb. 18, 2000)).
(§3) To examine the role of microtubules in LR asymmetry, 0.2-2 μM Nocodazole, and 0.3-30 nM Taxol were used. Nocodazole suppresses microtubule dynamics by destabilizing and disassembling microtubules (J. A. Cooper, J Cell Biol 105, 1473 (October, 1987)). Taxol inhibits the microtubule depolymerization and stabilizes microtubules (W. B. Derry, L. Wilson, M. A. Jordan, Biochemistry 34, 2203 (Feb. 21, 1995)).
To examine the role of the actomyosin motor, cells were tested with […], […], and 0.5-10 […]. Y-27632 works as a selective inhibitor to prevent the phosphorylation of the myosin regulatory light chain (T. Ishizaki et al., Mol Pharmacol 57, 976 (May, 2000)). ML-7 acts as a selective inhibitor of the myosin light chain kinase (M. Isemura, T. Mita, K. Satoh, K. Narumi, M. Motomiya, Cell Biol Int Rep 15, 965 (October, 1991)). Blebbistatin forms a low actin affinity complex through binding to myosin heads, causing the inhibition of nonmuscle myosin II ATPase activity (M. Kovacs, J. Toth, C. Hetenyi, A. Malnasi-Csizmadia, J. R. Sellers, J Biol Chem 279, 35557 (Aug. 20, 2004)).
(§4) High-resolution phase contrast images of live patterned cells were taken at a resolution of ˜0.645 μm/pixel, and analyzed using a custom-written code in MatLab (MathWorks, Natick, Mass.), based on the automated detection of intensity gradient and circular statistics (W. J. Karlon et al., Ann Biomed Eng 27, 712 (November-December, 1999)). In this algorithm, the intensity gradient was determined pixel by pixel with a Gaussian differential filter. In each sub-region of the image, the dominant local direction was determined using an accumulator scheme, in which the orientation of each pixel follows a von Mises distribution, a circular analogue of the linear normal distribution. Subsequently, the orientation in each sub-region was converted into an angle bias based on its deviation from the circumferential direction (see e.g., FIG. 2C). Mean angle and standard deviation of LR asymmetry were calculated for all sub-regions, using circular statistics (N. I. Fish, Statistical Analysis of Circular Data. (Cambridge University Press, Cambridge, UK, 1993)). […] The sub-region size was therefore set to 20 by 20 pixels (i.e., 13 by 13 μm).
(§5) Cell chirality on ring patterns (i.e., clockwise or counterclockwise alignment) was determined from calculated biased angles in local regions with one sample test for the mean angle, analogous to the one sample t-test in linear statistics (N. I. Fish, Statistical Analysis of Circular Data. (Cambridge University Press, Cambridge, UK, 1993)).

The test system of the next test is hUVEC cells. Put plainly: Cell chirality (alignment) on micropatterned rings, drug treatment, hUVEC. Type of test: cell-based, human. The conditions noted are these: hUVEC on ring patterns, count of rings. Here is the method:
as §1, §2, §3, §4, §5

Take `O=S(=O)(c1cccc2c(I)cccc12)N1CCCNCC1` [ML-7]: in the test on C2C12 cells, the “effect on left-right asymmetry” value was “did not affect left-right asymmetry”.
On to `CC(=O)O[C@H]1C(=O)[C@@]2(C)[C@H]([C@H](OC(=O)c3ccccc3)[C@]3(O)C[C@H](OC(=O)[C@H](O)[C@@H](NC(=O)c4ccccc4)c4ccccc4)C(C)=C1C3(C)C)[C@]1(OC(C)=O)CO[C@@H]1C[C@@H]2O` [Taxol], for which the “CCW: counter-clockwise alignment” value in the test with hUVEC cells (drug 0.3 nM) worked out at 0; in the test with hUVEC cells (drug 1 nM), 1; with hUVEC cells (drug 3 nM), 2; in the test on hUVEC cells (drug 10 nM), 5; in the test on hUVEC cells (drug 30 nM), 2; in the test on C2C12 cells (drug 0.3 nM) it was 24. In addition, the “CCW: counter-clockwise alignment” value with C2C12 cells (drug 1 nM) is 20; in the test with C2C12 cells (drug 3 nM), 31; with C2C12 cells (drug 10 nM), 17; in the test on C2C12 cells (drug 30 nM) it was 16. The “CW: clockwise alignment” value in the test on hUVEC cells (drug 0.3 nM) worked out at 8; with hUVEC cells (drug 1 nM) it was 34; in the test with hUVEC cells (drug 3 nM) it was 7; in the test with hUVEC cells (drug 10 nM) it was 10; in the test with hUVEC cells (drug 30 nM) it was 4; with C2C12 cells (drug 0.3 nM) it was 1. Moreover, the “CW: clockwise alignment” value is given as 1 in the test with C2C12 cells (drug 1 nM), 2 with C2C12 cells (drug 3 nM), 2 with C2C12 cells (drug 10 nM) and 2 in the test on C2C12 cells (drug 30 nM). Also, the “N/S: not significantly biased to CW or CCW” value (from here on “N/S: not significantly biased”) in the test with hUVEC cells (drug 0.3 nM) is on record as 0; in the test on hUVEC cells (drug 1 nM) it was 4; in the test with hUVEC cells (drug 3 nM), 9; in the test with hUVEC cells (drug 10 nM), 11; with hUVEC cells (drug 30 nM) it was 7; in the test with C2C12 cells (drug 0.3 nM), 3. The “N/S: not significantly biased” value with C2C12 cells (drug 1 nM) was 6; in the test on C2C12 cells (drug 3 nM), 9; in the test on C2C12 cells (drug 10 nM), 8; in the test on C2C12 cells (drug 30 nM) it was 13. In addition, the “effect on cell chirality” value in the test on C2C12 cells is given as “did not change cell chirality”.
With `COC(=O)Nc1nc2ccc(C(=O)c3cccs3)cc2[nH]1` [Nocodazole], the “CCW: counter-clockwise alignment” value in the test on hUVEC cells (drug 200 nM) was 3; in the test with hUVEC cells (drug 500 nM) it was 2; in the test with hUVEC cells (drug 1 μm), 0; with hUVEC cells (drug 2 μm), 0; in the test on C2C12 cells (drug 200 nM), 57; with C2C12 cells (drug 500 nM), 35. Besides, the “CCW: counter-clockwise alignment” value is reported as 18 in the test on C2C12 cells (drug 1 μM) and 1 with C2C12 cells (drug 2 μM). The “CW: clockwise alignment” value in the test with hUVEC cells (drug 200 nM) is recorded as 25; with hUVEC cells (drug 500 nM), 14; with hUVEC cells (drug 1 μm) it was 3; with hUVEC cells (drug 2 μm) it was 1; in the test with C2C12 cells (drug 200 nM), 0; in the test with C2C12 cells (drug 500 nM), 0. The “CW: clockwise alignment” value with C2C12 cells (drug 1 μM) and in the test with C2C12 cells (drug 2 μM) was 0 each time. The “N/S: not significantly biased” value in the test on hUVEC cells (drug 200 nM) was 76; in the test on hUVEC cells (drug 500 nM), 27; in the test on hUVEC cells (drug 1 μm) it was 4; in the test on hUVEC cells (drug 2 μm), 7; in the test with C2C12 cells (drug 200 nM), 18; in the test on C2C12 cells (drug 500 nM), 58. In addition, the “N/S: not significantly biased” value worked out at 21 in the test with C2C12 cells (drug 1 μM) and 6 with C2C12 cells (drug 2 μM). Moreover, in the test with C2C12 cells, the “effect on cell chirality” value was “did not change cell chirality”.
`C=C1[C@@H](C)[C@H]2[C@H](Cc3ccccc3)NC(=O)[C@]23[C@H](OC(C)=O)/C=C/[C@@](C)(O)C(=O)[C@@H](C)C/C=C/[C@H]3[C@@H]1O` [Cytochalasin D]: the “CCW: counter-clockwise alignment” value with hUVEC cells (drug 0.1 μg/mL) amounted to 0; in the test with hUVEC cells (drug 0.2 μg/mL), 0; with hUVEC cells (drug 0.5 μg/mL), 1; with C2C12 cells (drug 0.05 μg/mL) it was 8; in the test with C2C12 cells (drug 0.1 μg/mL), 3; with C2C12 cells (drug 0.2 μg/mL), 5. Also, the results for the “CCW: counter-clockwise alignment” value in the test with C2C12 cells (drug 0.5 μg/mL) and with C2C12 cells (drug 1 μg/mL) were 0 and 1, respectively. Also, the “CW: clockwise alignment” value worked out at 8 in the test on hUVEC cells (drug 0.1 μg/mL); 10 in the test on hUVEC cells (drug 0.2 μg/mL); 0 in the test with hUVEC cells (drug 0.5 μg/mL); 9 in the test with C2C12 cells (drug 0.05 μg/mL); 7 in the test on C2C12 cells (drug 0.1 μg/mL); 21 in the test with C2C12 cells (drug 0.2 μg/mL). Also, the “CW: clockwise alignment” value in the test with C2C12 cells (drug 0.5 μg/mL) is 10; with C2C12 cells (drug 1 μg/mL), 8. Further, the “N/S: not significantly biased” value in the test on hUVEC cells (drug 0.1 μg/mL) is on record as 12; in the test with hUVEC cells (drug 0.2 μg/mL), 22; in the test with hUVEC cells (drug 0.5 μg/mL), 6; in the test on C2C12 cells (drug 0.05 μg/mL), 6; in the test on C2C12 cells (drug 0.1 μg/mL), 10; with C2C12 cells (drug 0.2 μg/mL), 23. The “N/S: not significantly biased” value with C2C12 cells (drug 0.5 μg/mL) amounted to 14; in the test with C2C12 cells (drug 1 μg/mL), 20. For the same compound, the “effect on chirality of C2C12 cells” value in the test with C2C12 cells (low concentrations of the actin treadmilling inhibitors) is on record as “reversed the chirality of C2C12 cells from CCW into CW”.
For the compound `Cc1ccc2c(c1)C(=O)C1(O)CCN(c3ccccc3)C1=N2` (stereo not drawn) [Blebbistatin], in the test on C2C12 cells, the “effect on left-right asymmetry” value is “did not affect left-right asymmetry”.
The same measure, in the same setting: the value for `C[C@@H](N)[C@H]1CC[C@H](C(=O)Nc2ccncc2)CC1` [Y-27632] was “did not affect left-right asymmetry”.
